In ChEMBL document CHEMBL2157895, “Selective Dual Inhibitors of the Cancer-Related Deubiquitylating Proteases USP7 and USP47” (ACS Med Chem Lett, 2012):
Active and inactive are the calls of the source. No cut-off for these calls is given here.

Tests used:
[1] = biological target: T1, Ubiquitin carboxyl-terminal hydrolase 8 (Homo sapiens) (UniProt P40818); test: Inhibition of USP8 by Ub-CHOP reporter assay
T1 sequence (whole entry): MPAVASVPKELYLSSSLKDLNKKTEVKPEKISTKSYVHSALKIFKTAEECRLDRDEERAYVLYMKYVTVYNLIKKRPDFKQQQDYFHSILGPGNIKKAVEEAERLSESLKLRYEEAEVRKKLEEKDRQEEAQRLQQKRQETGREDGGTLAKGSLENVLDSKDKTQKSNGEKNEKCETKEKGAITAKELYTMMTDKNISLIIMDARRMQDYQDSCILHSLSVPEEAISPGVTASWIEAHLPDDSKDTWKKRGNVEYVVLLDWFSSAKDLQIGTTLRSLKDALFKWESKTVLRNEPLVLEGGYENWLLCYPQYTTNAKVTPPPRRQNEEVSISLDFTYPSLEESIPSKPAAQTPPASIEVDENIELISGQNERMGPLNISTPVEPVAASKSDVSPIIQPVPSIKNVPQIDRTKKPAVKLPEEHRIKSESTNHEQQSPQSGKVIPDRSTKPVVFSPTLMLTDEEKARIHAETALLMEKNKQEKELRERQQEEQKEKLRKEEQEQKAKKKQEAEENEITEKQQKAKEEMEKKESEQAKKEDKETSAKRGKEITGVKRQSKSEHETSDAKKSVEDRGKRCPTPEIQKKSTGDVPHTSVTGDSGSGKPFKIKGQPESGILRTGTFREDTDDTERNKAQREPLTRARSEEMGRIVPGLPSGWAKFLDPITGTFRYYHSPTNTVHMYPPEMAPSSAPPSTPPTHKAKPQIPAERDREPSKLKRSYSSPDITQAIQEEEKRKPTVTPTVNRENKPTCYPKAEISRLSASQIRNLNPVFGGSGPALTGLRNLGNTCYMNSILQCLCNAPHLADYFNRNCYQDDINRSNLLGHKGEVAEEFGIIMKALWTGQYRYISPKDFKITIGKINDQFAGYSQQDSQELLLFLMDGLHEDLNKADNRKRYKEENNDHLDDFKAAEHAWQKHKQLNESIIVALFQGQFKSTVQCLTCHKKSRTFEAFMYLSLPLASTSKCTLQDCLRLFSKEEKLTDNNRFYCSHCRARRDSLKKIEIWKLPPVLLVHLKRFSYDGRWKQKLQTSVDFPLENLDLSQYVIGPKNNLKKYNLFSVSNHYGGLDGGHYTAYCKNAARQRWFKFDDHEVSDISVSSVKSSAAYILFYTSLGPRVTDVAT

[2] = biological target: T2, Ubiquitin carboxyl-terminal hydrolase 47 (Homo sapiens) (UniProt Q96K76); test: Inhibition of USP47 in human HeLa cells assessed as polymerase-beta degradation; assay type: cell-based
T2 sequence (whole entry): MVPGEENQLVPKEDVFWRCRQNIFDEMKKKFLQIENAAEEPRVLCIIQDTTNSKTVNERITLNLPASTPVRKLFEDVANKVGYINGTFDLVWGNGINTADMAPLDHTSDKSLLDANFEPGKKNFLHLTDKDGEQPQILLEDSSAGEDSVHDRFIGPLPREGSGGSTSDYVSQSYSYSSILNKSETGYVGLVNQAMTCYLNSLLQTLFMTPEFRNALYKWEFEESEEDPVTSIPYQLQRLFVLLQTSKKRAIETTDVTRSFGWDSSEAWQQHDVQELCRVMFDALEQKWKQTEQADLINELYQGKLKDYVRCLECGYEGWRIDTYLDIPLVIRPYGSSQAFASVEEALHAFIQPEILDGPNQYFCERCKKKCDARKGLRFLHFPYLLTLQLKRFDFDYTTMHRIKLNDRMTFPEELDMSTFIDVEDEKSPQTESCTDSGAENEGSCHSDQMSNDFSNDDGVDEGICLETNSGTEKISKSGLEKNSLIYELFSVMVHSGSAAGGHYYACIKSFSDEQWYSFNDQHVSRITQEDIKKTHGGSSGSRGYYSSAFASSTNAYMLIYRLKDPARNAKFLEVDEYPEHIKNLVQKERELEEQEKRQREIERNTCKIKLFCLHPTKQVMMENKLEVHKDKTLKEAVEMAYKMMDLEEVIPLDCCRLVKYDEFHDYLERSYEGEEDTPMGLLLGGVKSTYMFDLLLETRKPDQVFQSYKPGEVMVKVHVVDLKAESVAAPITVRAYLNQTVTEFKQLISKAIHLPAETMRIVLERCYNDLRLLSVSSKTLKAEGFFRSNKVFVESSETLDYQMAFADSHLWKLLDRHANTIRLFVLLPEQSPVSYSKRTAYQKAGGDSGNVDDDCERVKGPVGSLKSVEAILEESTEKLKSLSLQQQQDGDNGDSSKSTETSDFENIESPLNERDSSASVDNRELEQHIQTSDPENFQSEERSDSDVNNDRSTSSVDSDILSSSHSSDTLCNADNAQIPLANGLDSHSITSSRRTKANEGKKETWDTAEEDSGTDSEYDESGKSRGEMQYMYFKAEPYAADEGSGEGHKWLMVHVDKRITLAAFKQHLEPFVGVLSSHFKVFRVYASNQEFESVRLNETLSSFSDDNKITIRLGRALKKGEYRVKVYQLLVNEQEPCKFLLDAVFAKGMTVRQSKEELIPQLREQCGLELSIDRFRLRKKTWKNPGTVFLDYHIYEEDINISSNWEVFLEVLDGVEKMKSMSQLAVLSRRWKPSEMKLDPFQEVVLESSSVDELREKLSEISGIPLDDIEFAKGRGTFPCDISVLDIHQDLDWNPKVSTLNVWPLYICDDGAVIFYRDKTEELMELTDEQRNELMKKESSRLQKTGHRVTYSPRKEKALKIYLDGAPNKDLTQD

inhibition [1]: inactive
inhibition [2]: Active
SMILES: CS(=O)(=O)c1ccc(NC(=O)c2cc(C#N)c(Sc3c(Cl)cncc3Cl)s2)cc1
